Target: T1, LptH (Pseudomonas aeruginosa, UniProt Q9HVV7)
T1 sequence (Q9HVV7 25-175): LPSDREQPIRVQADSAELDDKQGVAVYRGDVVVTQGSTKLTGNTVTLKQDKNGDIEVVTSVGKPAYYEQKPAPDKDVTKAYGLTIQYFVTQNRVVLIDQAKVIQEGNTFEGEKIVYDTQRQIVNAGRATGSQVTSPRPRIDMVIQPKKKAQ
Experiment: native mass spectrometry
Type: biochemical, P. aeruginosa
Details: for Emax (in words): comparison within 2a derivatives

Row | Emax (in words) (nMS) | SMILES | also measured
1 | – | Clc1cc2c(c3ncccc13)OCN(CCc1ccccc1)C2 [1a] | Emax (pH 8, read-out: Emax, maximum achievable monomer mole fraction): 73 ± 2%
2 | – | O=C(O)c1ccc(O)c2ncccc12 [2a, 5-carboxy-8-hydroxyquinoline] | increase in the monomer mole fraction (in words) (100 μM compound, nMS): minimal increase
3 | highest Emax values of the series | COC(=O)CCCNC(=O)c1ccc(O)c2ncccc12 [2c] | –
4 | highest Emax values of the series | COCOc1ccc(C(=O)NCCCC(=O)OC)c2cccnc12 [2e] | –

Reference: paper PMC7614387 (Chemical communications (Cambridge, England), 2021)
